“And” between values parts separate entries of the source, which are not always exact repeats. Equal entries are not always repeated. Where two headings read alike, the source gives them in different places.
Tests used:
[1] = molecular target: human JMJD5 (Homo sapiens, UniProt Q8N371); experiment: SPE-MS JMJD5 inhibition assay (hydroxylation of RPS6 128–148 peptide); format: biochemical
From the text: Synthetic peptides with sequences based on reported human 2OG oxygenase substrates were used in SPE-MS inhibition assays: RPS6, residues 128–148, for JMJD5;[42] HIF-α CODD, residues 558–574, for PHD2;[70] HIF-α CAD, residues 788–822, for FIH;[70] H3_1-15K9me3, histone 3 (H3), residues 1–15 with K9 of H3-bearing three methyl groups at the N^ε-position, K4 of H3 substituted by an alanine residue, and K14 of H3 by an isoleucine residue,[73] for KDM4E; and RPL27A, residues 31–49, for RIOX2 (Mina53).[44] All peptides were prepared as C-terminal amides by GL Biochem (Shanghai) Ltd. A synthetic thioether-linked cyclic peptide, hFX-CP101–119,[48] which was designed based on the reported cellular AspH substrate human coagulation factor X (hFX, residues 101–119; C101 was substituted for a D-alanine residue and C112 for a serine residue),[79] was used as AspH substrate; it was prepared with a C-terminal amide according to literature protocols.[80]
Cosubstrate/cofactor stock solutions [L-ascorbic acid/LAA: 50 mM in MQ-grade water; 2-oxoglutarate/2OG: 10 mM in MQ-grade water; ammonium iron(II) sulfate hexahydrate/FAS/(NH4)2Fe(SO4)2·6H2O: 400 mM in 20 mM HCl diluted to 1 mM in MQ-grade water] were freshly prepared from commercial solids (Sigma-Aldrich) on the day the assays were performed. The JMJD5,[42] PHD2,[70] FIH,[70] KDM4E,[72],[73] RIOX2,[44] and AspH[45] SPE-MS inhibition assays were performed as described in the cited literature, using isolated recombinant human enzymes (His6-thioredoxin-JMJD5,[42] His6-PHD2_181–426,[70] His6-FIH,[70] His6-KDM4E,[72],[73] His6-RIOX2_26–465,[87],[88] and His6-AspH315–758[48],[80]) and synthetic peptide substrates (RPS6_128–148 for JMJD5;[42] HIF-α CODD558–574 for PHD2;[70] HIF-α CAD788–822 for FIH;[70] H3_1–15K9me3 for KDM4E;[73] RPL27A31–49 for RIOX2;[44],[71] and hFX-CP101–119 for AspH;[45],[48] see above). For JMJD5, PHD2, FIH, RIOX2, and AspH, substrate hydroxylation was monitored (+16 Da mass shift), while for the KDM4E substrate, demethylation was monitored (−14 Da mass shift) by SPE-MS.

[2] = molecular target: T1, PHD2 (Homo sapiens, UniProt Q9GZT9); experiment: SPE-MS PHD2 inhibition assay (HIF-1α CODD hydroxylation); format: biochemical; conditions: Table 2; PHD2 181–426 […], 5.0 μM HIF-1α CODD; n = 2, mean ± SD
T1 construct: His6-PHD2_181–426; made in house; host or cells: Escherichia coli
T1 sequence (Q9GZT9 181-426): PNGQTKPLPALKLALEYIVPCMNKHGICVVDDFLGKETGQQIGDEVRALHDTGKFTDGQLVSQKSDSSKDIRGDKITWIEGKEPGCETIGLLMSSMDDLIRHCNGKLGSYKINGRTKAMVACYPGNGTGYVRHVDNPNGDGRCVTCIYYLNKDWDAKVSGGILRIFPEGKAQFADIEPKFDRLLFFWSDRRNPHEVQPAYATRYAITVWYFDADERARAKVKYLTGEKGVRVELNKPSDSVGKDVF
Description: (§1) H3_1-15K9me3, histone 3 (H3), residues 1–15 with K9 of H3-bearing three methyl groups at the N^ε-position, K4 of H3 substituted by an alanine residue, and K14 of H3 by an isoleucine residue,[73] for KDM4E; and RPL27A, residues 31–49, for RIOX2 (Mina53).[44]
(§2) Cosubstrate/cofactor stock solutions [L-ascorbic acid/LAA: 50 mM in MQ-grade water; 2-oxoglutarate/2OG: 10 mM in MQ-grade water; ammonium iron(II) sulfate hexahydrate/FAS/(NH4)2Fe(SO4)2·6H2O: 400 mM in 20 mM HCl diluted to 1 mM in MQ-grade water] were freshly prepared from commercial solids (Sigma-Aldrich) on the day the assays were performed. The JMJD5,[42] PHD2,[70] FIH,[70] KDM4E,[72],[73] RIOX2,[44] and AspH[45] […] For JMJD5, PHD2, FIH, RIOX2, and AspH, substrate hydroxylation was monitored (+16 Da mass shift), while for the KDM4E substrate, demethylation was monitored (−14 Da mass shift) by SPE-MS.

[3] = molecular target: T2, KDM4E (Homo sapiens, UniProt B2RXH2); experiment: SPE-MS KDM4E inhibition assay (demethylation of H3 1–15 K9me3); format: biochemical; conditions: Table 2, 10.0 μM H3 1–15 K9me3, n = 2, mean ± SD
T2 construct: made in house; host or cells: Escherichia coli
T2 sequence (B2RXH2 1-506): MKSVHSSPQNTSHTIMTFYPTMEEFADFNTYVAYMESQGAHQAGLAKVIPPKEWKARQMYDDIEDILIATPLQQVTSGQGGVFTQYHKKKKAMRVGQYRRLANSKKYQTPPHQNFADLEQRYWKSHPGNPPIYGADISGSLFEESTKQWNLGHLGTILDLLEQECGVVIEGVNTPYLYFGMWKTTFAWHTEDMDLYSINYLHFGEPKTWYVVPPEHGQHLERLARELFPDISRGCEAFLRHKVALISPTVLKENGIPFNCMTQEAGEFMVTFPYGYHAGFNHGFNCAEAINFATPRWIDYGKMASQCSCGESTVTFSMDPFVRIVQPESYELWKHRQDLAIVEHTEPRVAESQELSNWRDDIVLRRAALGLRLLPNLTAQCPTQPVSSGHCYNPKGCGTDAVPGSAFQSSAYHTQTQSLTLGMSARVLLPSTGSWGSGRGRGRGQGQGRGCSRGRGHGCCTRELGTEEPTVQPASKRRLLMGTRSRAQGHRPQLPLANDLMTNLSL
Description: as §1, §2

[4] = molecular target: T3, AspH (Homo sapiens, UniProt Q12797); experiment: SPE-MS AspH inhibition assay (hFX-CP101–119 hydroxylation); format: biochemical; conditions: Table 2; His6-AspH315–758 0.05 μM, 1.0 μM hFX-CP101–119; n = 2, mean ± SD
T3 construct: N-terminally His6-tagged AspH315–758; made in house; host or cells: Escherichia coli
T3 sequence (Q12797 315-758): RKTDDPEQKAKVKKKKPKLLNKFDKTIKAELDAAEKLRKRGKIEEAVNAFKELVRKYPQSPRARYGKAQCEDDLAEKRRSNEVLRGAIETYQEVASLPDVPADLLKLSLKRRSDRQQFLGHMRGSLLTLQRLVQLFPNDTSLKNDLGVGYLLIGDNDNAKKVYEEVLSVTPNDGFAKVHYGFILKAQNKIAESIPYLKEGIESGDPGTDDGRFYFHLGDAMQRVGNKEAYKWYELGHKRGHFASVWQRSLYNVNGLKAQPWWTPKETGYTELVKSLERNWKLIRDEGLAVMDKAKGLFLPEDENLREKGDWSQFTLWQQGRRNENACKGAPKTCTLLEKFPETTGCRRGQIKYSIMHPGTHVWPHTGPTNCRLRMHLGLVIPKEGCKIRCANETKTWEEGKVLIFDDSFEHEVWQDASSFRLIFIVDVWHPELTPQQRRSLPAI
Description: as §1, §2

[5] = molecular target: T4, RIOX2 (Homo sapiens, UniProt Q8IUF8); experiment: SPE-MS RIOX2 inhibition assay (RPL27A31–49 hydroxylation); format: biochemical; conditions: Table 2; His6-RIOX2 26–465 […], 5.0 μM RPL27A31–49; n = 2, mean ± SD
T4 construct: N-terminally His6-tagged RIOX2_26–465; made in house; host or cells: Escherichia coli
T4 sequence (Q8IUF8 26-465): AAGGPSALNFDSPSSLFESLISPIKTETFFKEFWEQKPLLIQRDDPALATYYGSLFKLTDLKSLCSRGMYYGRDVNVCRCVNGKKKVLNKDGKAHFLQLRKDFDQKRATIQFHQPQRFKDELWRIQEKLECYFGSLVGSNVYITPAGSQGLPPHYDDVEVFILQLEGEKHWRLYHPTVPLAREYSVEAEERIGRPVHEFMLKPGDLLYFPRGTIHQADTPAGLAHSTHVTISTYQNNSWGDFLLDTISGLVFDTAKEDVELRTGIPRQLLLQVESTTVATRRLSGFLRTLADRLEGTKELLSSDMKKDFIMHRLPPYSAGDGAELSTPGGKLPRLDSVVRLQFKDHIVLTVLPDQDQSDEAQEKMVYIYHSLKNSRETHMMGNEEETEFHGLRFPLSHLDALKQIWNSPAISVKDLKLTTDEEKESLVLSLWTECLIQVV
Description: Cosubstrate/cofactor stock solutions [L-ascorbic acid/LAA: 50 mM in MQ-grade water; 2-oxoglutarate/2OG: 10 mM in MQ-grade water; ammonium iron(II) sulfate hexahydrate/FAS/(NH4)2Fe(SO4)2·6H2O: 400 mM in 20 mM HCl diluted to 1 mM in MQ-grade water] were freshly prepared from commercial solids (Sigma-Aldrich) on the day the assays were performed. […] For JMJD5, PHD2, FIH, RIOX2, and AspH, substrate hydroxylation was monitored (+16 Da mass shift), while for the KDM4E substrate, demethylation was monitored (−14 Da mass shift) by SPE-MS.

[6] = molecular target: T2, KDM4E; conditions: Supporting Table S1; reported FDH-coupled spectrophotometric assay; ref SI 17; cited from earlier work
[7] = Table 1, JMJD5 […], 2OG 2.0 μM, Fe(II) 2.0 μM, LAA 100 μM, RPS6 128–148 2.0 μM, pH 7.5, 20 °C, n = 3, mean ± SD, read-out: IC50 JMJD5
[8] = isolated recombinant JMJD5, SPE-MS, approximate values, read-out: IC50 for JMJD5 inhibition
[9] = supplementary CSV, read-out: IC50 JMJD5
[10] = isolated recombinant JMJD5, SPE-MS
[11] = Table 2, JMJD5 […], 2OG 2.0 μM, Fe(II) 2.0 μM, LAA 100 μM, RPS6 128–148 2.0 μM, n = 3, mean ± SD, read-out: IC50 JMJD5
[12] = Supporting Table S1, JMJD5 […], 2OG 2.0 μM, RPS6 128-148 2.0 μM, pH 7.5, 20 °C, n = 3, mean ± SD, read-out: IC50 JMJD5

human JMJD5, sequence (Q8N371 whole entry, the tested form may be a part): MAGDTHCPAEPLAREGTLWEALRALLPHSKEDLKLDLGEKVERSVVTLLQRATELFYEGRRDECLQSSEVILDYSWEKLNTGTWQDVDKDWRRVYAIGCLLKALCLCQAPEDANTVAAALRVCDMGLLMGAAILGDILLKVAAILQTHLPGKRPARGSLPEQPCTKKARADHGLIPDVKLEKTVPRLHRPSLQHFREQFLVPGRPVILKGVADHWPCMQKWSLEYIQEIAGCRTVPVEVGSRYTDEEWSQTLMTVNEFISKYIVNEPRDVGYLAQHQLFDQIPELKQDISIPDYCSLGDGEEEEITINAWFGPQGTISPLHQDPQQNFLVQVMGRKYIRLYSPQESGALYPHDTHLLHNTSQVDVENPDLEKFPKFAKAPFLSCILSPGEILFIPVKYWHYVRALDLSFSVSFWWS

Row | IC50 [1, 7] | IC50 [1, 9] | IC50 [1, 12] | SMILES | further results
1 | 17.9 ± 2.6 µM | 17.9 ± 2.6 µM |  | O=C(O)c1ccnc(C(=O)O)c1Nc1ccccc1[N+](=O)[O-] [Compound 2] | IC50 [1, 8]: ~17.9 µM and ~16.8 µM
2 | 9.5 ± 2.2 µM | 9.5 ± 2.2 µM |  | O=C(O)c1ccnc(C(=O)O)c1NCc1ccccc1 [Compound 3] | 
3 | > 50 µM | > 50 µM |  | O=C(O)c1ccncc1NCc1ccccc1 [Compound 4] | JMJD5 inhibition (in words) [1, 10]: does not inhibit JMJD5
4 | 25.3 ± 0.5 µM | 25.3 ± 0.5 µM |  | O=C(O)c1ccnc(C(=O)O)c1NCC1CCCCC1 [Compound 5] | IC50 [1, 8]: ~25.3 µM
5 | 5.8 ± 2.9 µM | 5.8 ± 2.9 µM |  | COc1ccc(CNc2c(C(=O)O)ccnc2C(=O)O)cc1 [Compound 6] | 
6 | 10.4 ± 4.4 µM | 10.4 ± 4.4 µM |  | O=C(O)c1ccnc(C(=O)O)c1NCc1ccc(C(F)(F)F)cc1 [Compound 7] | 
7 | 3.1 ± 1.5 µM | 3.1 ± 1.5 µM |  | CC(Nc1c(C(=O)O)ccnc1C(=O)O)c1ccccc1 (centres unmarked) [Compound 8] | JMJD5 inhibition less efficient than 2,4-PDCA (1) ([1]; compared with 1): ~6 fold and ~ 5 fold; JMJD5 inhibition more efficient than 3 ([1]; compared with 3): ~3 fold; IC50 [1, 8]: ~3.1 µM
8 | 7.5 ± 2 µM | 7.5 ± 2 µM |  | CCC(Nc1c(C(=O)O)ccnc1C(=O)O)c1ccccc1 (centres unmarked) [Compound 9] | IC50 [1, 8]: ~7.5 µM
9 | 19.6 ± 3 µM | 19.6 ± 3 µM |  | O=C(O)c1ccnc(C(=O)O)c1NCCc1ccccc1 [Compound 10] | 
10 | 19.7 ± 3 µM | 19.7 ± 3 µM |  | O=C(O)c1ccnc(C(=O)O)c1NCCCc1ccccc1 [Compound 11] | 
11 | 20.8 ± 0.2 µM | 20.8 ± 0.2 µM |  | O=C(O)c1ccnc(C(=O)O)c1NCCCCc1ccccc1 [Compound 12] | 
12 | 4.5 ± 0.9 µM | 4.5 ± 0.9 µM |  | O=C(O)c1cc(C(=O)O)c(F)cn1 [Compound 15, 5-fluoro-2,4-PDCA] | JMJD5 inhibition (in words) [1, 10]: inhibits; IC50 [1, 8]: ~4.5 µM
13 |  |  |  | O=C(O)c1cc(C(=O)O)c(NCc2ccccc2)cn1 [Compound 20a, 5-(benzylamino)pyridine-2,4-dicarboxylic acid] | IC50 [2]: > 50 µM; IC50 [3]: 3.2 ± 1.6 µM; IC50 [4]: 500 ± 200 nM
14 |  |  |  | O=C(O)c1cc(C(=O)O)c(NCCCCc2ccccc2)cn1 [Compound 20d, 5-((4-phenylbutyl)amino)pyridine-2,4-dicarboxylic acid] | IC50 [1, 11]: 0.4 ± 0.2 µM; IC50 [2]: 20.4 ± 0.8 µM; IC50 [3]: 3.6 ± 0.7 µM; IC50 [4]: 1900 ± 200 nM
15 |  |  |  | CC(Nc1cnc(C(=O)O)cc1C(=O)O)c1ccccc1 (centres unmarked) [Compound 20e] | IC50 [1, 11]: 17.5 ± 2.5 µM; IC50 [1, 8]: ~17.5 µM; IC50 [2]: > 50 µM; IC50 [3]: 22.7 ± 0.4 µM; IC50 [4]: 5900 ± 1900 nM
16 |  |  |  | O=C(O)c1cc(C(=O)O)c(NCC2CCCCC2)cn1 [Compound 20f] | IC50 [5]: 34 ± 8.5 µM; IC50 [2]: > 50 µM; IC50 [3]: 3.2 ± 0.3 µM; IC50 [4]: 2600 ± 600 nM
17 |  |  |  | O=C(O)c1cc(C(=O)O)c(NCc2ccc(C(F)(F)F)cc2)cn1 [Compound 20g] | IC50 [2]: > 50 µM; IC50 [3]: 6.2 ± 1.1 µM; IC50 [4]: 1200 ± 100 nM
18 |  | > 50 µM | > 50 µM | O=C(O)c1ccccc1Nc1c(C(=O)O)ccnc1C(=O)O [Compound 24] | IC50 [6]: 166 µM
19 |  | 46.9 ± 4.6 µM | 46.9 ± 4.6 µM | O=C(O)c1ccnc(C(=O)O)c1Nc1ccccc1F [Compound 25] | 
20 |  | > 50 µM | > 50 µM | Cc1ccccc1Nc1c(C(=O)O)ccnc1C(=O)O [Compound 26] | IC50 [6]: 41 µM
21 |  | 29.6 ± 4.3 µM | 29.6 ± 4.3 µM | COc1ccccc1Nc1c(C(=O)O)ccnc1C(=O)O [Compound 27] | IC50 [6]: 19 µM
22 |  | 41.5 ± 2.2 µM | 41.5 ± 2.2 µM | CSc1ccccc1Nc1c(C(=O)O)ccnc1C(=O)O [Compound 28] | IC50 [6]: 48 µM
23 |  | 39.6 ± 11.2 µM | 39.6 µM | Nc1ccccc1Nc1c(C(=O)O)ccnc1C(=O)O [Compound 29] | 
24 |  | > 50 µM | > 50 µM | CC(Nc1cnccc1C(=O)O)c1ccccc1 (centres unmarked) [Compound 30] | 
25 |  | 10.3 ± 3.1 µM | 10.3 ± 3.1 µM | O=C(O)c1ccnc(C(=O)O)c1NCCc1ccc(Cl)cc1 [Compound 31] | 
26 |  | > 50 µM | > 50 µM | O=C(O)c1ccncc1NCCc1ccc(Cl)cc1 [Compound 32] | 
27 |  |  | > 50 µM | COC(=O)c1ccnc(C(=O)OC)c1 [dimethyl 2,4-PDCA, reference compound] | JMJD5 inhibition (in words) [1, 10]: does not inhibit isolated recombinant JMJD5; JMJD5 inhibition (in words) ([1]; isolated recombinant JMJD5, SPE-MS, listed as dimethyl ester derivative of 1): does not inhibit isolated recombinant JMJD5 efficiently

Row | SMILES | IC50 [1, 7] | IC50 [1, 9] | IC50 [1, 12] | further results
28 | O=C(O)c1ccnc(C(=O)O)c1F [Compound 13, 3-fluoro-2,4-PDCA] | 27.2 ± 2.9 µM | 27.2 ± 2.9 µM |  | JMJD5 inhibition (in words) [1, 10]: did not efficiently inhibit JMJD5
29 | O=C(O)c1ccnc(C(=O)O)c1Nc1ccccc1 [Compound 21] |  | > 50 µM | > 50 µM | IC50 [6]: 19 µM

From publication PMC10424186 (Journal of Medicinal Chemistry, 2023)
